Measured values: patent US4604380A, “C-23-substituted mycaminosyltylonolide compounds, pharmaceutical compositions and methods of use” (Eli Lilly and Company, priority 1985, dated 1986)
Values after ≈ are worked out from the molar mass of the structure shown. Read-outs that look alike come from different tables or passages of the source.

What was measured:
Streptococcus pyogenes = experiment: ED50 vs Streptococcus pyogenes experimental infection in mice (Table VI); format: in vivo; conditions: two doses, several values = results from more than one test
Protocol: (§1) Certain formula 1a compounds have also shown in vivo antimicrobial activity against experimental bacterial infections. When two doses of test compound were administered to mice in experimental infections, the activity observed was measured as an ED50 value [effective dose in mg/kg to protect 50% of the test animals: see Warren Wick, et al., J. Bacteriol. 81, 233-235 (1961)].

Pasteurella multocida = experiment: Activity in Pasteurella multocida-infected one-day-old chicks (Table VIII); format: in vivo; conditions: subcutaneous 30 mg/kg × 2, 1 and 4 hours post-challenge, all non-medicated chicks died within 24 hours
Protocol: Table VIII summarizes the results of tests in which illustrative compounds were evaluated against a Pasteurella infection in one-day-old chicks. The compounds were administered parenterally after challenge of the chicks with Pasteurella multocida (0.1 mL of a 10^-4 dilution of a twenty-hour tryptose broth culture of an avian P. multocida given subcutaneously). In these tests, all non-medicated infected chicks died within 24 hours of Pasteurella challenge. In the tests summarized in Table VIII, the compounds were administered by subcutaneous injection at a dosage of 30 mg/kg, 1 and 4 hours post-challenge of the chicks with P. multocida.

[1] = system: Streptococcus pneumoniae Park I; experiment: microbe, parasite or virus in culture; format: cell-based; conditions: Streptococcus pneumoniae
Protocol: (§2) The MIC's s in Table III were determined by standard agar-dilution assays. The MIC's in Table IV were obtained using a conventional broth-dilution microtiter test.

[2] = system: Streptococcous pneumoniae; experiment: ED50 vs. Streptococcous pneumoniae experimental infection in mice (Table VII); format: in vivo; conditions: Mus musculus, sc, subcutaneous, two doses, read-out: ED50 Subcutaneous
Protocol: as §1

[3] = system: Staphylococcus aureus S13E; experiment: MIC, standard agar-dilution assay (Table III); format: cell-based
Protocol: as §2

[4] = system: Haemophilus influenzae C.L.; experiment: MIC, standard agar-dilution assay (Table III); format: cell-based
Protocol: as §2

[5] = system: Streptococcus Group D X66; experiment: MIC, standard agar-dilution assay (Table III); format: cell-based
Protocol: as §2

[6] = system: Streptococcus Group D 2041; experiment: MIC, standard agar-dilution assay (Table III); format: cell-based; conditions: GROUPD2041
Protocol: as §2

[7] = system: Staphylococcus epidermidis EPI1; experiment: MIC, standard agar-dilution assay (Table III); format: cell-based; conditions: Staphylococcus epidermidis, EPI1
Protocol: as §2

[8] = system: Staphylococcus aureus V41; experiment: MIC, standard agar-dilution assay (Table III); format: cell-based; conditions: Staphylococcus aureus V41, penicillin-resistant strain
Protocol: as §2

[9] = system: Staphylococcus aureus X400; experiment: MIC, standard agar-dilution assay (Table III); format: cell-based; conditions: Staphylococcus aureus, X400
Protocol: as §2

[10] = system: Staphylococcus epidermidis 222; experiment: MIC, standard agar-dilution assay (Table III); format: cell-based
Protocol: as §2

[11] = system: Staphylococcus aureus X1.1; experiment: MIC, standard agar-dilution assay (Table III); format: cell-based
Protocol: as §2

[12] = system: Streptococcus pyogenes C203; experiment: MIC, standard agar-dilution assay (Table III); format: cell-based
Protocol: as §2

[13] = system: Haemophilus influenzae 76; experiment: MIC, standard agar-dilution assay (Table III); format: cell-based
Protocol: as §2

[14] = system: Pasteurella hemolytica 41D; experiment: MIC, conventional broth-dilution microtiter test (Table IV); format: cell-based; conditions: broth-dilution microtiter; Pasteurella hemolytica 41D; read-out: MIC
Protocol: as §2

[15] = system: Pasteurella multocida 17E; experiment: as above; format: cell-based
Protocol: as §2

[16] = system: Mycoplasma gallisepticum 36H; experiment: as above; format: cell-based; conditions: Mycoplasmoides gallisepticum, 36H
Protocol: as §2

[17] = system: Pasteurella multocida 68C; experiment: as above; format: cell-based; conditions: broth-dilution microtiter; Pasteurella multocida 68C; read-out: MIC
Protocol: as §2

[18] = system: Pasteurella hemolytica 23C; experiment: as above; format: cell-based; conditions: broth-dilution microtiter; Pasteurella hemolytica 23C; read-out: MIC
Protocol: as §2

[19] = system: Pasteurella hemolytica 22C; experiment: as above; format: cell-based; conditions: broth-dilution microtiter; Pasteurella hemolytica 22C; read-out: MIC
Protocol: as §2

Streptococcus sp. 19F = experiment: as above; format: cell-based
Protocol: as §2

[20] = system: Pasteurella multocida 40G; experiment: as above; format: cell-based; conditions: broth-dilution microtiter; Pasteurella multocida 40G; read-out: MIC
Protocol: as §2

[21] = system: Mycoplasma gallisepticum 29C; experiment: as above; format: cell-based; conditions: Mycoplasmoides gallisepticum, 29C
Protocol: as §2

[22] = system: Mycoplasma hyopneumoniae S5972; experiment: as above; format: cell-based; conditions: Mesomycoplasma hyopneumoniae, S5972
Protocol: as §2

[23] = system: Pasteurella multocida 60A; experiment: as above; format: cell-based
Protocol: as §2

Mycoplasma hyorhinis 29E = experiment: as above; format: cell-based; conditions: broth-dilution microtiter; Mycoplasma hyorhinis 29E; read-out: MIC
Protocol: as §2

[24] = system: Bordetella bronchisepticum 95B; experiment: as above; format: cell-based
Protocol: as §2

[25] = system: Pasteurella multocida 22A; experiment: as above; format: cell-based; conditions: broth-dilution microtiter; Pasteurella multocida 22A; read-out: MIC
Protocol: as §2

[26] = system: Staphylococcus aureus 19C; experiment: as above; format: cell-based
Protocol: as §2

Mycoplasma synoviae 40A = experiment: as above; format: cell-based; conditions: Mycoplasmopsis synoviae, 40A
Protocol: as §2

Staphylococcus aureus = experiment: ED50 vs. Staphylococcus aureus experimental infection in mice (Table V); format: in vivo; conditions: sc, subcutaneous, two doses, dose protecting 50% of animals, read-out: ED50 Subcutaneous
Protocol: as §1

[27] = system: Mycoplasma gallisepticum 15E; experiment: MIC, conventional broth-dilution microtiter test (Table IV); format: cell-based; conditions: Mycoplasmoides gallisepticum, 15E
Protocol: as §2

| Structure (SMILES) | ED50 (Streptococcus pyogenes; po, read-out: ED50 Oral) [mg/kg] | Number of Deaths/Number Treated (Pasteurella multocida) | ED50 [2] [mg/kg] | MIC [3] [µg/mL] | MIC [5] [µg/mL] | MIC [6] [µg/mL] | MIC [7] [µg/mL] | MIC [8] [µg/mL] | MIC [9] [µg/mL] | MIC [11] [µg/mL] | MIC [14] [µg/mL] | MIC [16] [µg/mL] | MIC [17] [µg/mL] | MIC [18] [µg/mL] | MIC [19] [µg/mL] | MIC (Streptococcus sp. 19F) [µg/mL] | MIC [20] [µg/mL] | MIC [21] [µg/mL] | MIC [22] [µg/mL] | MIC (Mycoplasma hyorhinis 29E) [µg/mL] | further results |
| --- | --- | --- | --- | --- | --- | --- | --- | --- | --- | --- | --- | --- | --- | --- | --- | --- | --- | --- | --- | --- | --- |
| CCC1OC(=O)CC(O)C(C)C(OC2OC(C)C(O)C(N(C)C)C2O)C(CC=O)CC(C)C(=O)C=CC(C)=CC1CN1CC2(C)CC1CC(C)(C)C2 (stereo not shown) [Compound 23, 23-deoxy-23-(1,3,3-trimethyl-6-azabicyclo[3.2.1]octan-6-yl)-OMT] | 100 | 10/10 | 3.6 | 0.5 (≈ 0.682 µM) | 0.5 (≈ 0.682 µM) | 0.5 (≈ 0.682 µM) | 0.5 (≈ 0.682 µM) | 0.5 (≈ 0.682 µM) | 0.5 (≈ 0.682 µM) | 0.5 (≈ 0.682 µM) | 1.56 (≈ 2.13 µM) | 3.12 (≈ 4.26 µM) | 0.78 (≈ 1.06 µM) | 1.56 (≈ 2.13 µM) | 1.56 (≈ 2.13 µM) | < 0.048 | 0.78 (≈ 1.06 µM) | < 0.048 | 0.048 (≈ 0.0655 µM) | 1.56 (≈ 2.13 µM) | MIC ([1]; read-out: MIC): 0.06 µg/mL (≈ 0.0819 µM); MIC ([4]; agar dilution, Haemophilus influenzae C.L., ampicillin-sensitive strain, read-out: MIC): 2 µg/mL (≈ 2.73 µM); MIC ([10]; agar dilution, Staphylococcus epidermidis 222, read-out: MIC): 0.125 µg/mL (≈ 0.171 µM); MIC ([12]; agar dilution, Streptococcus pyogenes C203, read-out: MIC): 0.25 µg/mL (≈ 0.341 µM); MIC ([13]; agar dilution, Haemophilus influenzae 76, ampicillin-resistant strain, read-out: MIC): 1 µg/mL (≈ 1.36 µM); MIC ([15]; broth-dilution microtiter, Pasteurella multocida 17E, bovine isolate, read-out: MIC): 0.78 µg/mL (≈ 1.06 µM); MIC ([23]; broth-dilution microtiter, Pasteurella multocida 60A, avian isolate, read-out: MIC): 1.56 µg/mL (≈ 2.13 µM); MIC [24]: 12.5 µg/mL (≈ 17.1 µM); MIC [25]: 0.39 µg/mL (≈ 0.532 µM); MIC ([26]; broth-dilution microtiter, Staphylococcus aureus 19C, read-out: MIC): 1.56 µg/mL (≈ 2.13 µM); MIC (Mycoplasma synoviae 40A): < 0.048 µg/mL; ED50 (Staphylococcus aureus): 3.79 mg/kg |
| CCC1OC(=O)CC(O)C(C)C(OC2OC(C)C(O)C(N(C)C)C2O)C(CC=O)CC(C)C(=O)C=CC(C)=CC1CN1CC2CCC(CC2)C1 (stereo not shown) [Compound 17, 23-(3-azabicyclo[3.2.2]nonan-3-yl)-OMT] | > 100 | 10/10 | > 10 | 0.5 (≈ 0.709 µM) | 0.5 (≈ 0.709 µM) | 1 (≈ 1.42 µM) | 0.5 (≈ 0.709 µM) | 0.5 (≈ 0.709 µM) | 0.5 (≈ 0.709 µM) | 0.5 (≈ 0.709 µM) | 0.39 (≈ 0.553 µM) | 50 (≈ 70.9 µM) | 0.39 (≈ 0.553 µM) | 0.39 (≈ 0.553 µM) | 0.39 (≈ 0.553 µM) | 0.39 (≈ 0.553 µM) | 0.39 (≈ 0.553 µM) | < 0.048 | 0.048 (≈ 0.0681 µM) | 0.39 (≈ 0.553 µM) | ED50 (Streptococcus pyogenes; sc, subcutaneous, read-out: ED50 Subcutaneous): 9.09 mg/kg; ED50 Subcutaneous (Streptococcus pyogenes; subcutaneous): > 10 mg/kg × 2; MIC [1]: 0.06 µg/mL (≈ 0.0851 µM); MIC ([4]; Haemophilus influenzae): 2 µg/mL (≈ 2.84 µM); MIC ([10]; Staphylococcus epidermidis, 222): 0.25 µg/mL (≈ 0.355 µM); MIC ([12]; Streptococcus pyogenes, C203): 0.25 µg/mL (≈ 0.355 µM); MIC ([13]; Haemophilus influenzae, 76): 2 µg/mL (≈ 2.84 µM); MIC ([15]; Pasteurella multocida, 17E): 0.78 µg/mL (≈ 1.11 µM); MIC [27]: 50 µg/mL (≈ 70.9 µM); MIC ([23]; Pasteurella multocida, 60A): 0.78 µg/mL (≈ 1.11 µM); MIC [24]: 6.25 µg/mL (≈ 8.87 µM); MIC [25]: 0.39 µg/mL (≈ 0.553 µM); MIC ([26]; Staphylococcus aureus, 19C): 0.78 µg/mL (≈ 1.11 µM); MIC (Mycoplasma synoviae 40A): < 0.048 µg/mL; ED50 (Staphylococcus aureus): 2.31 mg/kg |
